This test deals with p62-dependent mitophagy. The test can be described thus: Luciferase-p62 assay (Fluc-p62 clearance) in mouse embryonic fibroblasts. Format: cell-based. In a few lines: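 MEFs with doxycycline-inducible Fluc-p62; after induction, doxycycline removed and cells treated 48 h with compounds at 10 μM. Fluc-p62 clearance, taken as mitophagy, read by ONE-Glo+Tox luciferase with viability. Vehicle (DMSO) as negative control; activity also expressed relative to rapamycin.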

[1] abbreviates: Luciferase-p62 assay, mouse embryonic fibroblasts (MEFs), compounds at 10 μM.
Where [2] appears, read: percentage of Luciferase-p62 clearance relative to baseline (mean luminescence in the absence of doxycycline induction), MEFs, 10 μM.
Where [3] appears, read: percentage of activity relative to rapamycin tested in the same experiment at the same concentration, MEFs, 10 μM.

Structures can show the parent of a compound that is named as a salt. Where two headings read alike, the source gives them in different places.

For `CCC12C=CCN3CC[C@@]4(c5ccc(OC)cc5N(C)[C@H]4[C@@](O)(C(=O)OC)[C@@H]1OC(C)=O)[C@@H]32` (stereo partly drawn) [Vindoline], the “Mean Luminescence” value under setting [1] is reported as 930.98. In addition, under setting [2], the “% Activity over baseline” value is recorded as 42.46%. Further, the “% Activity relative to Rapamycin” value under setting [3] is 76.51%.
For `C[C@H]1[C@H](C)CC[C@]2(C(=O)O)CC[C@]3(C)C(=CC[C@@H]4[C@@]5(C)CC[C@H](O)C(C)(C)[C@@H]5CC[C@]43C)[C@H]12` [Ursolic acid], in that order: 905.10, 44.06% and 79.39%.
For the molecule `C[C@@H]1CC[C@H]2C(C)(C)[C@H]3C[C@@]12CC[C@@]3(C)O` [Cedrol], under setting [1], the “Mean Luminescence” value is given as 850.22. The “% Activity over baseline” value under setting [2] turned out to be 47.46%. Also, the “% Activity relative to Rapamycin” value under setting [3] was 85.50%.
As to `O=c1cc(-c2ccccc2)oc2c1ccc1ccccc12` [α-Naphthoflavone], the “Mean Luminescence” value under setting [1] was found to be 781.48. Moreover, the “% Activity over baseline” value under setting [2] turned out to be 51.70%. Moreover, the “% Activity relative to Rapamycin” value under setting [3] came out at 93.16%.
With `CC1(C)[C@@H](OC(=O)CCC(=O)O)CC[C@]2(C)[C@H]3C(=O)C=C4[C@@H]5C[C@@](C)(C(=O)O)CC[C@]5(C)CC[C@@]4(C)[C@]3(C)CC[C@@H]12` [Carbenoxolone disodium], under setting [1], the “Mean Luminescence” value was 856.44. For the same molecule, the “% Activity over baseline” value under setting [2] came to 47.07%. The “% Activity relative to Rapamycin” value under setting [3] was 84.81%.
Turning to `CC1=C2C(=O)O[C@@H](c3ccoc3)[C@]2(C)CCC1` [Fraxinellone], under setting [1], the “Mean Luminescence” value came to 972.50. Under setting [2], the “% Activity over baseline” value amounted to 39.90%. The “% Activity relative to Rapamycin” value under setting [3] is given as 71.89%.
On the same counts, the results for `C[C@@H]1CC[C@@]2(OC1)O[C@H]1C[C@H]3[C@@H]4CC=C5C[C@@H](O)CC[C@]5(C)[C@H]4CC[C@]3(C)[C@H]1[C@@H]2C` [Diosgenin] are 903.89, 44.14% and 79.53%.
On the same counts, the results for `COc1c(C)c2c(c(O)c1C/C=C(\C)CCC(=O)OCCN1CCOCC1)C(=O)OC2` [Mycophenolate Mofetil] are 594.21, 63.28% and 114.01%.
For the molecule `Cl.NCCc1ccc(O)c(O)c1` [Dopamine HCl], the “Mean Luminescence” value stood at 995.96. Where the note is “10 µM”, the “% Activity over baseline” value stood at 38.45% and the “% Activity relative to Rapamycin” value is 69.28%.
With `CC(=O)O[C@H](CC(=O)O)C[N+](C)(C)C.[Cl-]` [L-Acetylcarnitine (hydrochloride)], the “Mean Luminescence” value under setting [1] amounted to 581.20. The “% Activity over baseline” value under setting [2] was determined as 64.08%. Further, the “% Activity relative to Rapamycin” value under setting [3] was 115.46%.
On the same counts, the results for `CC(C)C[C@H]1C(=O)N2CCC[C@H]2[C@]2(O)O[C@](NC(=O)[C@@H]3C=C4c5cccc6[nH]c(Br)c(c56)C[C@H]4N(C)C3)(C(C)C)C(=O)N12` [Bromocriptine mesylate] are 685.00, 57.67% and 103.90%.
On the same counts, the results for `C[C@]12CC[C@@H]3c4ccc(OC(=O)c5ccccc5)cc4CC[C@H]3[C@@H]1CC[C@@H]2O` [Estradiol Benzoate] are 970.65, 40.01% and 72.09%.
On the same counts, the results for `O=C(CCc1ccc(O)cc1)c1c(O)cc(O)cc1O` [Phloretin] are 912.42, 43.61% and 78.58%.
With `COc1cc2c(cc1OC)[C@@H](Cc1ccc(O)c(Oc3cc4c(cc3OC)CCN(C)[C@@H]4Cc3ccc(O)cc3)c1)N(C)CC2` [Liensinine], the “Mean Luminescence” value under setting [1] was 923.21. Besides, the “% Activity over baseline” value under setting [2] is on record as 42.94%. Moreover, under setting [3], the “% Activity relative to Rapamycin” value is 77.38%.
For `Clc1ccc(C(Cn2ccnc2)OCc2ccsc2Cl)c(Cl)c1` (stereo not drawn) [Tioconazole], in that order: 537.96, 66.75% and 120.27%.
Take `CC(C)C(=O)C(=O)O` [Ketoisovaleric acid]: under setting [1], the “Mean Luminescence” value stood at 921.08. Further, the “% Activity over baseline” value under setting [2] is 43.08%. Also, under setting [3], the “% Activity relative to Rapamycin” value worked out at 77.61%.
On the same counts, the results for `CC(=O)OCC(=O)[C@@]1(O)[C@H](C)C[C@H]2[C@@H]3CCC4=CC(=O)C=C[C@]4(C)[C@@]3(F)[C@@H](O)C[C@@]21C` [Dexamethasone acetate] are 681.22, 57.90% and 104.32%.
For `COc1cc(C(C)=O)ccc1O` [Apocynin], under setting [1], the “Mean Luminescence” value came out at 973.30. The “% Activity over baseline” value under setting [2] worked out at 39.85%. Under setting [3], the “% Activity relative to Rapamycin” value amounted to 71.80%.
Regarding `O=C(O)c1cc(O)c(O)c(O)c1` [Gallic acid], the “Mean Luminescence” value under setting [1] was determined as 898.71. Also, the “% Activity over baseline” value under setting [2] was found to be 44.46%. For the same molecule, the “% Activity relative to Rapamycin” value under setting [3] is recorded as 80.10%.
For `CO[C@]12C[C@@H](COC(=O)c3cncc(Br)c3)CN(C)[C@@H]1Cc1cn(C)c3cccc2c13` [Nicergoline], in that order: 764.49, 52.75% and 95.05%.
In the case of `Clc1ccc(COC(Cn2ccnc2)c2ccc(Cl)cc2Cl)c(Cl)c1` (stereo not drawn) [Miconazole Nitrate], the “Mean Luminescence” value under setting [1] came to 704.35. Also, the “% Activity over baseline” value under setting [2] is reported as 56.47%. Also, the “% Activity relative to Rapamycin” value under setting [3] turned out to be 101.75%.
For `Nc1ncnc2c1ncn2[C@@H]1O[C@H](COP(=O)(O)OP(=O)(O)OP(=O)(O)O)[C@@H](O)[C@H]1O` [ATP], in that order: 875.39, 45.90% and 82.70%.
Regarding `C=C1CC[C@H](O)C/C1=C/C=C1\CCC[C@]2(C)[C@@H]([C@H](C)CCCC(C)C)CC[C@@H]12` [Vitamin D3], the “Mean Luminescence” value under setting [1] was 488.16. For the same molecule, the “% Activity over baseline” value under setting [2] is 69.83%. Moreover, the “% Activity relative to Rapamycin” value under setting [3] is given as 125.82%.
As for `Cc1nc(Nc2ncc(C(=O)Nc3c(C)cccc3Cl)s2)cc(N2CCN(CCO)CC2)n1` [Dasatinib Monohydrate], the “Mean Luminescence” value under setting [1] is listed as 410.49. In addition, the “% Activity over baseline” value under setting [2] came to 74.63%. Moreover, the “% Activity relative to Rapamycin” value under setting [3] is reported as 134.47%.
For `Nc1ccn([C@@H]2O[C@H](CO)[C@@H](O)[C@H]2O)c(=O)n1` [Cytidine], the “Mean Luminescence” value under setting [1] is 841.40. Under setting [2], the “% Activity over baseline” value turned out to be 48.00%. Moreover, the “% Activity relative to Rapamycin” value under setting [3] is reported as 86.49%.
On the same counts, the results for `C#C[C@]1(O)CC[C@H]2[C@@H]3CCC4=CC(=O)CC[C@]4(C)[C@H]3CC[C@@]21C` [Ethisterone] are 996.32, 38.43% and 69.24%.
With `CO/N=C1\C[C@]2(C[C@@H]3C[C@@H](C/C=C(\C)C[C@@H](C)/C=C/C=C4\CO[C@@H]5[C@H](O)C(C)=C[C@@H](C(=O)O3)[C@]45O)O2)O[C@H](/C(C)=C/C(C)C)[C@H]1C` [Moxidectin], under setting [1], the “Mean Luminescence” value came out at 476.19. Besides, the “% Activity over baseline” value under setting [2] turned out to be 70.57%. In addition, the “% Activity relative to Rapamycin” value under setting [3] worked out at 127.15%.
For `CN(Cc1ccc(C(C)(C)C)cc1)Cc1cccc2ccccc12` [Butenafine HCl], in that order: 582.45, 64.00% and 115.32%.
Consider `C=C[C@@]1(C)CC(=O)[C@]2(O)[C@@]3(C)[C@@H](O)CCC(C)(C)[C@@H]3[C@H](O)[C@H](OC(C)=O)[C@@]2(C)O1` [Forskolin], for which the “Mean Luminescence” value under setting [1] was determined as 911.32. Further, the “% Activity over baseline” value under setting [2] is on record as 43.68%. In addition, the “% Activity relative to Rapamycin” value under setting [3] stood at 78.70%.
On the same counts, the results for `CC1(C)O[C@H]2CC(=O)OC[C@]23[C@H]2CC[C@@]4(C)[C@H](c5ccoc5)OC(=O)[C@H]5O[C@]54[C@]2(C)C(=O)C[C@@H]13` [Limonin] are 753.03, 53.46% and 96.33%.
On the same counts, the results for `C[C@]12CC[C@@H]3c4ccc(O)cc4CC[C@H]3[C@@H]1C[C@@H](O)[C@@H]2O` [Estriol] are 784.74, 51.50% and 92.80%.
For `C[C@H](CCC(=O)O)[C@H]1CC[C@H]2[C@@H]3CC[C@@H]4C[C@H](O)CC[C@]4(C)[C@H]3C[C@H](O)[C@]12C` [Deoxycholic acid sodium salt], in that order: 591.12, 63.47% and 114.35%.
For `COc1ccc(/C=C/C(=O)/C=C(O)/C=C/c2ccc(OC)c(OC)c2)cc1OC` [ASC-J9], the “Mean Luminescence” value under setting [1] is 664.12. Also, the “% Activity over baseline” value under setting [2] came to 58.96%. Further, under setting [3], the “% Activity relative to Rapamycin” value was 106.23%.
For `CC[C@@H](C(=O)[C@@H](C)[C@@H](O)[C@H](C)[C@@H]1O[C@@H]([C@@H](CC)C(=O)O)CC[C@@H]1C)[C@H]1O[C@]2(C=C[C@@H](O)[C@]3(CC[C@@](C)([C@H]4CC[C@](O)(CC)[C@H](C)O4)O3)O2)[C@H](C)C[C@@H]1C` [Salinomycin], the “Mean Luminescence” value under setting [1] turned out to be 792.70. For the same molecule, the “% Activity over baseline” value under setting [2] was 51.01%. Moreover, the “% Activity relative to Rapamycin” value under setting [3] stood at 91.91%.
For `CC(=O)CCc1ccc(O)cc1` [Raspberry ketone], in that order: 696.39, 56.96% and 102.63%.

Values taken from patent US20250381110A1, “SKIN CARE COMPOSITION AND METHOD OF USING THE SAME” (THE PROCTER & GAMBLE COMPANY, priority 2024, published 2025).
